Test results taken from ChEMBL document CHEMBL4229452, “Expanding chemical space of DNA-binding molecules with three base-binding units” (Bioorg Med Chem Lett, 2018).
The source made the active and inactive calls. The rule behind the calls is not given here.

Key:
Assay type in all cases: nucleic-acid assay
[1] = system: dsDNA; experiment: Binding affinity to 5'-(CTAA CGG AATG)-3'/5'-(CATT CGG TTAG)-3' duplex DNA (unknown origin) assessed as change in melting temperature at 20 uM by UV-spectrophotometric method
[2] = system: dsDNA; experiment: Binding affinity to 5'-(CTAA CGG AATG)-3'/5'-(CATT CGG TTAG)-3' duplex DNA (unknown origin) assessed as apparent association […] constant at 60 uM by isothermal titration calorimetric method
[3] = system: dsDNA; experiment: Binding affinity to 5'-(CTAA GGC AATG)-3'/5'-(CATT GGC TTAG)-3' duplex DNA (unknown origin) at < 10 uM by fluorescence titration method
[4] = system: dsDNA; experiment: Binding affinity to 5'-(CTAA CGG AATG)-3'/5'-(CATT CGG TTAG)-3' duplex DNA (unknown origin) at < 10 uM by fluorescence titration method
[5] = system: dsDNA; experiment: Binding affinity to 5'-(CTAA GGC AATG)-3'/5'-(CATT GGC TTAG)-3' duplex DNA (unknown origin) assessed as change in melting temperature at 20 uM by UV-spectrophotometric method
[6] = system: dsDNA; experiment: Binding affinity to 5'-(CTAA CGA AATG)-3'/5'-(CATT GGT TTAG)-3' duplex DNA (unknown origin) assessed as melting temperature at 5 uM by fluorimetric method
[7] = system: dsDNA; experiment: Binding affinity to 5'-(CTAA GGA AATG)-3'/5'-(CATT CGT TTAG)-3' duplex DNA (unknown origin) assessed as melting temperature at 5 uM by fluorimetric method
[8] = system: dsDNA; experiment: Binding affinity to 5'-(CTAA GGC AATG)-3'/5'-(CATT CGG TTAG)-3' duplex DNA (unknown origin) assessed as melting temperature at 5 uM by fluorimetric method
[9] = system: dsDNA; experiment: Binding affinity to 5'-(CTAA GGC AATG)-3'/5'-(CATT GGC TTAG)-3' duplex DNA (unknown origin) at 7.5 uM by fluorescence titration method
[10] = system: dsDNA; experiment: Binding affinity to 5'-(CTAA CGG AATG)-3'/5'-(CATT CGG TTAG)-3' duplex DNA (unknown origin) at 7.5 uM by fluorescence titration method
[11] = system: dsDNA; experiment: Binding affinity to 5'-(CTAA CGT AATG)-3'/5'-(CATT GGA TTAG)-3' duplex DNA (unknown origin) assessed as melting temperature at 5 uM by fluorimetric method
[12] = system: dsDNA; experiment: Binding affinity to 5'-(CTAA CGG AATG)-3'/5'-(CATT GGC TTAG)-3' duplex DNA (unknown origin) assessed as melting temperature at 5 uM by fluorimetric method
[13] = system: dsDNA; experiment: Binding affinity to 5'-(CTAA GGT AATG)-3'/5'-(CATT CGA TTAG)-3' duplex DNA (unknown origin) assessed as melting temperature at 5 uM by fluorimetric method

| SMILES | ΔTm [1] | Ka [2] | Activity [3] | Activity [4] | ΔTm [5] | Tm [6] | Tm [7] | Tm [8] | Activity [9] | Activity [10] | Activity [2] | Tm [11] | Tm [12] | Tm [13] |
| --- | --- | --- | --- | --- | --- | --- | --- | --- | --- | --- | --- | --- | --- | --- |
| Cc1ccc2ccc(NC(=O)OCCCNCCCOC(=O)Nc3ccc4ccc(C)nc4n3)nc2n1 | 23 °C | 2.09 ×10⁷ /M | Active | Active | 2 °C |  |  |  |  |  |  |  |  |  |
| Cc1ccc2ccc(NC(=O)OCCCN(CCCOC(=O)Nc3ccc4ccc(C)nc4n3)CCCOC(=O)Nc3ccc4ccc(C)nc4n3)nc2n1 | 22.9 °C |  |  |  | 1.6 °C | 24.1 °C | 26.7 °C | 34.7 °C | Active | Active | inactive | 24.9 °C | 26.5 °C | 27.1 °C |
